# Results reported in patent US10689381B2 (priority 2017, dated 2020).
# Where two headings read alike, the source gives them in different places.
# Columns and labels:
# Experiment in all cases: cells
# [1] = tested on: HCT116; assay type: cell-based, human
# How it was run: (§1)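 Cells seeded at 30,000 cells/mL in DMEM with 10% FBS, then exposed for 72 h to compound at six concentrations spanning 0–1000 nM or 0–10000 nM, in duplicate. Final incubation at 37 °C lasted 5 min for L1210 and 15 min for HCT116.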
# [2] = tested on: HCT116/VM46; assay type: cell-based, human
# Method: Compounds were tested for their cell growth inhibition of L1210 (ATCC no. CCL-219, mouse lymphocytic leukemia), HCT116 (ATCC no. CCL-247, human colorectal carcinoma), and HCT116/VM46 (a vinblastine-resistant strain of HCT116) cells in culture. A population of cells (>1×10^6 cells/mL as determined with a hemocytometer) was diluted with Dulbecco's Modified Eagle Medium (DMEM, Gibco) containing 10% fetal bovine serum (FBS, Gibco) to give a final concentration of 30,000 cells/mL. To each well of a 96-well plate (Corning® Costar®) was added 100 μL of the cell media solution with a multichannel pipet. The cultures were incubated at 37° C. in an atmosphere of 5% CO2 and 95% humidified air for 24 hours.
# The test compounds were then added to the plate as follows: test compounds were diluted in DMSO to a concentration of 1 mM. 10-Fold serial dilutions in DMSO were next performed on a separate 96-well plate. Fresh culture media (100 μL) was added to each well of cells resulting in 200 μL of medium per well followed by 2 μL of each test agent. Compounds were tested in duplicate (n=2-8 times) at six concentrations between 0-1000 nM or 0-10000 nM. Following the addition of compound, cultures were incubated for an additional 72 hours.
# The plates were incubated at 37° C. for 5 minutes (L1210) or 15 min (HCT116 and HCT116/VM46). After the given incubation time, 50 μL of 0.1 N NaOH was added to each well and the absorption at 405 nm was determined using a 96 well plate reader. […]
# [3] = tested on: L1210; assay type: cell-based, mouse
# How it was run: as §1
# [4] = table in Background, C20′ substituent X, read-out: IC50, HCT116
# [5] = table in Background, C20′ substituent X, read-out: IC50, HCT116/VM46
# [6] = Table 5, read-out: IC50 HCT116/VM46
# [7] = vinblastine-sensitive cell lines
compound,measurement,setting,value
"CCC1C[C@H]2CN(CCc3c([nH]c4ccccc34)[C@@](C(=O)OC)(c3cc4c(cc3OC)N(C)[C@H]3[C@@](O)(C(=O)OC)[C@H](OC(C)=O)[C@]5(CC)C=CCN6CC[C@]43[C@@H]65)C2)C1 (stereo partly shown) [Compound 4, reference compound]",IC50,[1]; [4],60 nM
same,IC50,[2]; [5],600 nM
CCC1(NC(=O)C2CCNCC2)CC2CN(CCc3c([nH]c4ccccc34)C(C(=O)OC)(c3cc4c(cc3OC)N(C)C3C(O)(C(=O)OC)C(OC(C)=O)C5(CC)C=CCN6CCC43C65)C2)C1 (stereo not shown) [Compound 146],IC50,"[1]; Table 5, read-out: IC50 HCT116",> 10000 nM
same,IC50,[3]; Table 5,4200 nM
same,IC50,[2]; [6],> 10000 nM
"CC[C@]1(N)C[C@H]2CN(CCc3c([nH]c4ccccc34)[C@@](C(=O)OC)(c3cc4c(cc3OC)N(C)[C@H]3[C@@](O)(C(=O)OC)[C@H](OC(C)=O)[C@]5(CC)C=CCN6CC[C@]43[C@@H]65)C2)C1 [Compound 6, 20′-aminovinblastine]",IC50,[1]; [4],600 nM
same,IC50,[2]; [5],> 10000 nM
CCC1(NC(=O)c2cn(C)cn2)CC2CN(CCc3c([nH]c4ccccc34)C(C(=O)OC)(c3cc4c(cc3OC)N(C)C3C(O)(C(=O)OC)C(OC(C)=O)C5(CC)C=CCN6CCC43C65)C2)C1 (stereo not shown) [Compound 142],IC50,"[1]; Table 5, read-out: IC50 HCT116",50 nM
same,IC50,[3]; Table 5,80 nM
same,IC50,[2]; [6],> 1000 nM
"CC[C@]1(N=[N+]=[N-])C[C@H]2CN(CCc3c([nH]c4ccccc34)[C@@](C(=O)OC)(c3cc4c(cc3OC)N(C)[C@H]3[C@@](O)(C(=O)OC)[C@H](OC(C)=O)[C@]5(CC)C=CCN6CC[C@]43[C@@H]65)C2)C1 [Compound 5, 20′-azidovinblastine]",IC50,[1]; [4],690 nM
same,IC50,[2]; [5],5500 nM
CCc1ccc(C(=O)NC2(CC)CC3CN(CCc4c([nH]c5ccccc45)C(C(=O)OC)(c4cc5c(cc4OC)N(C)C4C(O)(C(=O)OC)C(OC(C)=O)C6(CC)C=CCN7CCC54C76)C3)C2)cc1 (stereo not shown) [Compound 30],IC50,"[1]; Table 2, read-out: IC50 HCT116",0.7 nM
same,potency relative to vinblastine (more potent),[1]; [7],10 fold
same,IC50,[3]; Table 2,0.65 nM
CC[C@]1(NC(=O)c2ccc(OC)c(Cl)c2)C[C@H]2CN(CCc3c([nH]c4ccccc34)[C@@](C(=O)OC)(c3cc4c(cc3OC)N(C)[C@H]3[C@@](O)(C(=O)OC)[C@H](OC(C)=O)[C@]5(CC)C=CCN6CC[C@]43[C@@H]65)C2)C1 [Compound 92],IC50,"[1]; Table 2, read-out: IC50 HCT116",5.1 nM
same,IC50,[3]; Table 2,3.7 nM
CC[C@]1(NC(=O)c2ccc3ncsc3c2)C[C@H]2CN(CCc3c([nH]c4ccccc34)[C@@](C(=O)OC)(c3cc4c(cc3OC)N(C)[C@H]3[C@@](O)(C(=O)OC)[C@H](OC(C)=O)[C@]5(CC)C=CCN6CC[C@]43[C@@H]65)C2)C1 [Compound 170],IC50,"[1]; Table 6, read-out: IC50 HCT116",0.6 nM
same,IC50,[3]; Table 6,0.5 nM
CCC1(NC(=O)c2ccc3c(c2)OCCN3C)CC2CN(CCc3c([nH]c4ccccc34)C(C(=O)OC)(c3cc4c(cc3OC)N(C)C3C(O)(C(=O)OC)C(OC(C)=O)C5(CC)C=CCN6CCC43C65)C2)C1 (stereo not shown) [Compound 176],IC50,"[1]; Table 6, read-out: IC50 HCT116",0.3 nM
same,IC50,[3]; Table 6,0.3 nM
CC[C@]1(NC(=O)c2ccc(OCc3ccccc3)cc2)C[C@H]2CN(CCc3c([nH]c4ccccc34)[C@@](C(=O)OC)(c3cc4c(cc3OC)N(C)[C@H]3[C@@](O)(C(=O)OC)[C@H](OC(C)=O)[C@]5(CC)C=CCN6CC[C@]43[C@@H]65)C2)C1 [Compound 77],IC50,"[1]; Table 2, read-out: IC50 HCT116",5.7 nM
same,IC50,[3]; Table 2,5.4 nM
CC[C@]1(NC(=O)c2ccccc2F)C[C@H]2CN(CCc3c([nH]c4ccccc34)[C@@](C(=O)OC)(c3cc4c(cc3OC)N(C)[C@H]3[C@@](O)(C(=O)OC)[C@H](OC(C)=O)[C@]5(CC)C=CCN6CC[C@]43[C@@H]65)C2)C1 [Compound 46],IC50,"[1]; Table 2, read-out: IC50 HCT116",7.7 nM
same,IC50,[3]; Table 2,8.4 nM
CC[C@]1(NC(=O)/C=C/c2ccoc2)C[C@H]2CN(CCc3c([nH]c4ccccc34)[C@@](C(=O)OC)(c3cc4c(cc3OC)N(C)[C@H]3[C@@](O)(C(=O)OC)[C@H](OC(C)=O)[C@]5(CC)C=CCN6CC[C@]43[C@@H]65)C2)C1 [Compound 112],IC50,"[1]; Table 3, read-out: IC50 HCT116",0.7 nM
same,IC50,[3]; Table 3,0.7 nM
CCC1(NC(=O)c2ccc3ocnc3c2)CC2CN(CCc3c([nH]c4ccccc34)C(C(=O)OC)(c3cc4c(cc3OC)N(C)C3C(O)(C(=O)OC)C(OC(C)=O)C5(CC)C=CCN6CCC43C65)C2)C1 (stereo not shown) [Compound 168],IC50,"[1]; Table 6, read-out: IC50 HCT116",5.1 nM
same,IC50,[3]; Table 6,5.4 nM
CCC1(NC(=O)c2cccc(OC)c2)CC2CN(CCc3c([nH]c4ccccc34)C(C(=O)OC)(c3cc4c(cc3OC)N(C)C3C(O)(C(=O)OC)C(OC(C)=O)C5(CC)C=CCN6CCC43C65)C2)C1 (stereo not shown) [Compound 68],IC50,"[1]; Table 2, read-out: IC50 HCT116",0.8 nM
same,IC50,[3]; Table 2,0.6 nM
CCCCc1ccc(C(=O)N[C@@]2(CC)C[C@H]3CN(CCc4c([nH]c5ccccc45)[C@@](C(=O)OC)(c4cc5c(cc4OC)N(C)[C@H]4[C@@](O)(C(=O)OC)[C@H](OC(C)=O)[C@]6(CC)C=CCN7CC[C@]54[C@@H]76)C3)C2)cc1 [Compound 35],IC50,"[1]; Table 2, read-out: IC50 HCT116",20 nM
same,IC50,[3]; Table 2,30 nM
CCC1(NC(=O)c2ccc3c(c2)ncn3C)CC2CN(CCc3c([nH]c4ccccc34)C(C(=O)OC)(c3cc4c(cc3OC)N(C)C3C(O)(C(=O)OC)C(OC(C)=O)C5(CC)C=CCN6CCC43C65)C2)C1 (stereo not shown) [Compound 166],IC50,"[1]; Table 6, read-out: IC50 HCT116",0.6 nM
same,IC50,[3]; Table 6,0.7 nM
CCC1(NC(=O)c2cccc3ccccc23)CC2CN(CCc3c([nH]c4ccccc34)C(C(=O)OC)(c3cc4c(cc3OC)N(C)C3C(O)(C(=O)OC)C(OC(C)=O)C5(CC)C=CCN6CCC43C65)C2)C1 (stereo not shown) [Compound 115],IC50,"[1]; Table 4, read-out: IC50 HCT116",65 nM
same,potency relative to vinblastine (less potent / reduced activity),[1]; [7],roughly 10 fold
same,IC50,[3]; Table 4,60 nM
CC[C@]1(NC(=O)c2ccc(OC)c(F)c2)C[C@H]2CN(CCc3c([nH]c4ccccc34)[C@@](C(=O)OC)(c3cc4c(cc3OC)N(C)[C@H]3[C@@](O)(C(=O)OC)[C@H](OC(C)=O)[C@]5(CC)C=CCN6CC[C@]43[C@@H]65)C2)C1 [Compound 90],IC50,"[1]; Table 2, read-out: IC50 HCT116",0.6 nM
same,IC50,[3]; Table 2,0.6 nM
CC[C@]1(NC(=O)c2ccc(N(C)C(=O)OC(C)(C)C)cc2)C[C@H]2CN(CCc3c([nH]c4ccccc34)[C@@](C(=O)OC)(c3cc4c(cc3OC)N(C)[C@H]3[C@@](O)(C(=O)OC)[C@H](OC(C)=O)[C@]5(CC)C=CCN6CC[C@]43[C@@H]65)C2)C1 [Compound 63],IC50,"[1]; Table 2, read-out: IC50 HCT116",3.9 nM
same,IC50,[3]; Table 2,4.1 nM
CCC1(NC(=O)c2ccc(C#N)c(C)c2)CC2CN(CCc3c([nH]c4ccccc34)C(C(=O)OC)(c3cc4c(cc3OC)N(C)C3C(O)(C(=O)OC)C(OC(C)=O)C5(CC)C=CCN6CCC43C65)C2)C1 (stereo not shown) [Compound 55],IC50,"[1]; Table 2, read-out: IC50 HCT116",6.2 nM
same,IC50,[3]; Table 2,4.8 nM
CCC1(NC(=O)c2ccc3ccccc3c2)CC2CN(CCc3c([nH]c4ccccc34)C(C(=O)OC)(c3cc4c(cc3OC)N(C)C3C(O)(C(=O)OC)C(OC(C)=O)C5(CC)C=CCN6CCC43C65)C2)C1 (stereo not shown) [Compound 116],IC50,"[1]; Table 4, read-out: IC50 HCT116",2.3 nM
same,potency relative to vinblastine (more potent),[1]; [7],approximately 3 fold
same,IC50,[3]; Table 4,1.9 nM
CCC1(NC(=O)c2ccc(C)c(NC(=O)OC(C)(C)C)c2)CC2CN(CCc3c([nH]c4ccccc34)C(C(=O)OC)(c3cc4c(cc3OC)N(C)C3C(O)(C(=O)OC)C(OC(C)=O)C5(CC)C=CCN6CCC43C65)C2)C1 (stereo not shown) [Compound 102],IC50,"[1]; Table 2, read-out: IC50 HCT116",7.1 nM
same,IC50,[3]; Table 2,6 nM
CCC1(NC(=O)C2CCN(C)CC2)CC2CN(CCc3c([nH]c4ccccc34)C(C(=O)OC)(c3cc4c(cc3OC)N(C)C3C(O)(C(=O)OC)C(OC(C)=O)C5(CC)C=CCN6CCC43C65)C2)C1 (stereo not shown) [Compound 148],IC50,"[1]; Table 5, read-out: IC50 HCT116",4400 nM
same,IC50,[3]; Table 5,5300 nM
CC[C@]1(NC(=O)c2csc3ccccc23)C[C@H]2CN(CCc3c([nH]c4ccccc34)[C@@](C(=O)OC)(c3cc4c(cc3OC)N(C)[C@H]3[C@@](O)(C(=O)OC)[C@H](OC(C)=O)[C@]5(CC)C=CCN6CC[C@]43[C@@H]65)C2)C1 [Compound 164],IC50,"[1]; Table 6, read-out: IC50 HCT116",5.7 nM
same,IC50,[3]; Table 6,5.2 nM
CC[C@]1(NC(=O)c2ccc(NC)cc2)C[C@H]2CN(CCc3c([nH]c4ccccc34)[C@@](C(=O)OC)(c3cc4c(cc3OC)N(C)[C@H]3[C@@](O)(C(=O)OC)[C@H](OC(C)=O)[C@]5(CC)C=CCN6CC[C@]43[C@@H]65)C2)C1 [Compound 62],IC50,"[1]; Table 2, read-out: IC50 HCT116",0.33 nM
same,IC50,[3]; Table 2,0.38 nM
